Source: US8513205B2, “Potent chimeric NRTI-NNRTI bifunctional inhibitors of HIV-1 reverse transcriptase” (Yale University, priority 2008, dated 2013)
Like-named read-outs stand apart in the source and are kept apart here.

Legend:
HIV-1 RT [1] = molecular target: T1, HIV-1 RT (Human immunodeficiency virus type 1 group M subtype B, UniProt P03366); test: Steady-state competition assay, inhibition of single nucleotide incorporation by HIV-1 RT; assay type: biochemical
T1 construct: heterodimeric p66/p51 wild-type HIV-1 RT; His tag (histidine tag) (C); made in house
Experimental: dTTP and dGTP were purchased from GE Biosciences. Oligonucleotide primers and template were synthesized and purified using 20% denaturing gel-electrophoresis. […] Labeling and annealing of primer/templates were performed as described previously. Murakami, et al., J. Biol. Chem. 2003, 278, 36403-36409. Expression and Purification of HIV-1 RT.
C-terminal histidine tagged heterodimeric p66/p51 wild-type HIV-1 RT was expressed and purified as described previously (Kerr and Anerson, Biochemistry, 1997, 36, 14064-14070) using a clone generously provided by Stephen Hughes, Paul Boyer, and Andrea Ferris (Fredrick Cancer Research and Development Center, Fredrick, Md.).
DMSO concentrations were kept constant at less than 2%. DMSO alone was added as a no inhibitor control for each set of experiments. Reactions were initiated with the addition of 5 μM dNTP and 10 mM MgCl2 and were quenched after 15 minutes at 37° C. with 0.3 M EDTA. All concentrations represent final concentrations after mixing. Reaction products were subjected to 20% denaturing polyacrylamide gel-electrophoresis and quantitated on a Bio-Rad Molecular Imager FX. Product formation was plotted as a function of inhibitor concentration and fitted to a hyperbola to generate IC50 curves. IC50 values are defined as the concentration of inhibitor that inhibits steady-state single nucleotide incorporation by 50%.

HIV-1 RT [2] = molecular target: T1, HIV-1 RT; test: Incorporation assay under single turnover conditions (gel, FIG. 7); assay type: biochemical; details: 30 min, with Mg++; for incorporation into primer opposite template A: D23/D36mer, primer for T incorporation, no dTTP; for incorporation into primer opposite template C: D24/D36mer, primer for G incorporation, no dGTP
Experimental: Controls for both primer/templates include 0 time points (lanes 1 and 4) and incubation for 30 min. with no Mg^++ (lanes 2 and 5).
Incorporation experiments were performed under single turnover conditions; 50 μM d4U-TP-4PEG-TMC and 10 mM MgCl2 were mixed with 250 nM RT (active sites) and 50 nM 5′-labeled primer/template to initiate the reaction. Negative controls were performed under identical conditions without MgCl2. The reaction was allowed to proceed for 30 minutes at 37° C., after which the reaction was quenched with 0.3 M EDTA. Reaction products were subjected to 20% denaturing polyacrylamide gel-electrophoresis and analyzed on a Bio-Rad Molecular Imager FX.

[3] = inhibition of dGTP incorporation opposite template C, D24/D36mer primer-template, read-out: IC50 incorrect base pair
[4] = inhibition of dTTP incorporation opposite template A, D23/D36mer primer-template, read-out: IC50 correct base pair

Structure (SMILES) | fold improvement relative to d4T-TP (HIV-1 RT [1]; correct base pair, D23/D36mer) [fold] | fold improvement relative to the TMC-derivative (HIV-1 RT [1]; correct base pair, D23/D36mer) | IC50 (HIV-1 RT [1]; [3]) [nM] | IC50 (HIV-1 RT [1]; [4]) [nM] | incorporation into primer opposite template A (HIV-1 RT [2]; listed as d4U-TP-4PEG-TMC) | incorporation into primer opposite template A (HIV-1 RT [2]; listed as d4UTP-4PEG-TMC) | incorporation into primer opposite template C (HIV-1 RT [2]; listed as d4U-TP-4PEG-TMC) | incorporation into primer opposite template C (HIV-1 RT [2]; listed as d4UTP-4PEG-TMC) | fold lower potency relative to parent TMC-derivative (HIV-1 RT [1]; correct base pair, D23/D36mer) [fold] | fold improvement in potency relative to TMC-4PEG-OH (HIV-1 RT [1]; correct base pair, D23/D36mer) [fold]
Cc1cc(C#CCOCCOCCOCCOCCOCC#Cc2cn(C3C=CC(COP(=O)(O)OP(=O)(O)OP(=O)(O)O)O3)c(=O)[nH]c2=O)cc(C)c1Oc1ccnc(Nc2ccc(C#N)cc2)n1 (centres unmarked) [1c, d4U-propynyl-4-PEG-propynyl-TMC-120 Triphosphate] | > 500 | 4-5 fold | 38 | 3 | formation of an elongated primer chain terminated with the bifunctional monophosphate | incorporation of the bifunctional-TP | not the D24/36mer primer-template | no product | – | –
Cc1cc(C#CCOCCOCCOCCOCCO)cc(C)c1Oc1ccnc(Nc2ccc(C#N)cc2)n1 [TMC-4PEG-OH, E, 4-(4-{4-[3-(2-{2-[2-(2-Hydroxy-ethoxy)-ethoxy]-ethoxy}-ethoxy)-prop-1-ynyl]-2,6-dimethyl-phenoxy}-pyrimidin-2-ylamino)-benzonitrile] | – | – | 29 | 49 | – | – | – | – | 4 | –
Cc1cc(C#CCOCCOCCOCCOCCOCC#Cc2cn(C3C=CC(CO)O3)c(=O)[nH]c2=O)cc(C)c1Oc1ccnc(Nc2ccc(C#N)cc2)n1 (centres unmarked) [1b, d4U-propynyl-4-PEG-propynyl-TMC-120] | – | – | 35 | 16 | – | – | – | – | – | 3
